Experimental data as given in patent US20160199463A1, “HDAC2 DEFENDS VASCULAR ENDOTHELIUM FROM INJURY” (The Johns Hopkins University, priority 2014, published 2016).
pIC50: −log10 of the molar value.

Tests used:
[1] = system: aortic rings from Arg2−/− mice; assay: Force tension (wire) myography, vascular relaxation of aortic rings from Arg2-/- mice; assay type: cell-based, mouse; details: Arg2−/− mice; TSA 200 nmol/L; n=6
Method: (§1) Mouse aorta was isolated and cleaned in ice-cold Krebs-Ringer-bicarbonate solution containing the following (in mM): 118.3 NaCl, 4.7 KCl, 1.6 CaCl2, 1.2 KH2 PO4, 25 NaHCO3, 1.2 MgSO4, and 11.1 dextrose. The aorta was immersed in a bath filled with constantly oxygenated Krebs buffer at 37° C. Equal size thoracic aortic rings (2 mm) were mounted using a microscope, ensuring no damage to the smooth muscle or endothelium. One end of the aortic rings was connected to a transducer, and the other to a micromanipulator. Aorta was passively stretched to an optimal resting tension using the micromanipulator, after which a dose of 60 mM KCl was administered, and repeated after a wash with Krebs buffer. After these washes, all vessels were allowed to equilibrate for 20-30 min in the presence of indomethacin (3 μM). Phenylephrine (1 μM) was administered to induce vasoconstriction. A dosedependent response (1 nM to 10 μM), with the muscarinic agonist, ACH or nitric oxide donor, SNP, was then performed as necessary. The responses were repeated in the presence of inhibitors. Relaxation responses were calculated as a percentage of tension following pre-constriction. Sigmoidal dose-response curves were fitted to data with the minimum constrained to 0. Two to four rings were isolated from each animal and the number of animals in each group (n) was 6.

HDAC = details: cited from earlier work
eNOS = eNOS expression in HAECs (immunoblot); assay type: cell-based, human; details: 1 μmol/L, 18 hours
Method: (§2) After 48 hrs of HAEC cells transfection, cells were lysed in ice cold RIPA lysis buffer consisting of 20 mM Tris-HCl at pH 7.5, 150 mM NaCl, 1 mM EDTA, 1 mM EGTA, 1% NP40, 1% sodium deoxycholate, 1 mM Na3VO4, 2.5 mM sodium pyrophosphate, 1 mM 3-glycerophosphate, 1 μg/mL leupeptin, and a 1:1000 diluted protease inhibitor cocktail (Sigma). For immunoprecipitation studies, whole cell lysate lysates were centrifuged at 14,000×g and supernatants were precleared by incubation with Protein A/G-agarose beads for 2 h at 4° C. with rocking. Agarose beads were then pelleted by centrifugation at 1,000×g. FLAG-Arg2 in precleared lysates were immunoprecipitated by incubation overnight at 4° C. with rocking following addition of anti-FLAG antibody (10 μl). Immune complexes were eluted in 2×SDS sample buffer by boiling for 5 minutes before loading into SDS-PAGE. Western blotting analysis was performed by transferring the SDS gel onto a PVDF membrane and visualized using secondary antibodies conjugated to alkaline phosphatases.

Arg2 = Arg2 protein expression in HAECs (Western blot); assay type: cell-based, human
Method: as §2

Arg2 mRNA [2] = assay: Arg2 mRNA in HAECs (RT-PCR, real-time PCR); assay type: cell-based, human; details: preincubated with TSA
Method: Total RNA was extracted from segments of mice aortas and HAEC using Trizol and PureLink (Invitrogen). RNA was then reverse transcribed with oligo dT primers to obtain cDNA and quantitative real time PCR (Applied Biosystems) was performed using SYBR Green Supermix mix (Applied Biosystems) whereas semiquantitative RTPCR was performed using conventional Biorad PCR machine and the following primer sets: Real Time PCR data are expressed as “fold change”, which is calculated as 2-ΔΔCt.

Arg2 mRNA [3] = assay: Arg2 mRNA in isolated mice aorta (real-time PCR); assay type: cell-based, mouse; details: TSA 200 nmol/L, 18 hours
Method: Total RNA was extracted from segments of mice aortas and HAEC using Trizol and PureLink (Invitrogen). RNA was then reverse transcribed with oligo dT primers to obtain cDNA and quantitative real time PCR (Applied Biosystems) was performed using SYBR Green Supermix mix (Applied Biosystems) whereas semiquantitative RTPCR was performed using conventional Biorad PCR machine and the following primer sets:
Real Time PCR data are expressed as “fold change”, which is calculated as 2-ΔΔCt.

[4] = system: aortic rings of wild-type mice; assay: Force tension (wire) myography, vascular relaxation of isolated wild-type mouse aortic rings; assay type: cell-based
Method: as §1

CC(/C=C/C(=O)NO)=C\[C@@H](C)C(=O)c1ccc(N(C)C)cc1 [TSA, trichostatin A]
Emax endothelial cell-dependent vasorelaxation [1]: 66.3±7.54%
pIC50 (HDAC): 8.74
eNOS expression (eNOS): negligible effect
Arg2 expression, broad-spectrum HDAC inhibitors (Arg2; 1 μmol/L, 18 hours): upregulated
concentration of maximum effect on Arg2 protein (Arg2; 18 hours): 1 µmol/L
Arg2 protein expression, dose dependence (Arg2; TSA 0, 0.1, 0.3, and 1 μmol/L, 18 hours): dose-dependent fashion
Arg2 expression (Arg2; TSA 400 nmol/L, 18 hours): increased
time at which increase in Arg2 protein expression is observed (Arg2; TSA 1 μmol/L): 8 h
Arg2 mRNA (Arg2 mRNA [2]): substantially upregulated
Arg2 mRNA (Arg2 mRNA [3]): substantially upregulated
SNP-mediated (endothelium-independent) vasorelaxation versus vehicle-only control ([4]; TSA 200 nmol/L or MGCD0103 1 μmol/L, 18 hours): no significant difference
Emax acetylcholine-mediated (endothelium-dependent) vasorelaxation ([4]; TSA 200 nmol/L, 18 hours preincubation, n=6): 31.24±7.8%
